Test results published in PubChem BioAssay AID1918939 (Molecular Pharmacology Branch, DTP, NCI, 2023).
pIC50: −log10 of the molar value.

Test system: 653999-131-R-J2-PDC complex spheroid viability
Experiment: Anticancer human tumor 653999-131-R-J2-PDC patient-derived lung adenocarcinoma cell line growth inhibition
Conditions: for pIC50: curve of first compound; for viability, T/C: stronger effect = lower value
How it was run: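 Multicellular complex spheroids of tumor cells with human endothelial cells (HUVEC) and mesenchymal stem cells; the LSD1 inhibitor iadademstat was combined with standard-of-care or investigational agents. Top concentration at or near clinical Cmax, half-log dilutions; final DMSO ≤0.25%.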

[1] = second compound 0.1 µM, first compound 0.000316 µM
[2] = second compound 0.1 µM, first compound 0.001 µM
[3] = second compound 0.1 µM, first compound 0.00316 µM
[4] = second compound 0.1 µM, first compound 0.01 µM
[5] = second compound 0.1 µM, first compound 0.0316 µM
[6] = second compound 0.1 µM, first compound 0.1 µM
[7] = second compound 0.316 µM, first compound 0.000316 µM
[8] = second compound 0.316 µM, first compound 0.001 µM
[9] = second compound 0.316 µM, first compound 0.00316 µM
[10] = second compound 0.316 µM, first compound 0.01 µM
[11] = second compound 0.316 µM, first compound 0.0316 µM
[12] = second compound 0.316 µM, first compound 0.1 µM
[13] = second compound 1 µM, first compound 0.000316 µM
[14] = second compound 1 µM, first compound 0.001 µM
[15] = second compound 1 µM, first compound 0.00316 µM
[16] = second compound 1 µM, first compound 0.01 µM
[17] = second compound 1 µM, first compound 0.0316 µM
[18] = second compound 1 µM, first compound 0.1 µM
[19] = second compound 3.16 µM, first compound 0.000316 µM
[20] = second compound 3.16 µM, first compound 0.001 µM
[21] = second compound 3.16 µM, first compound 0.00316 µM
[22] = second compound 3.16 µM, first compound 0.01 µM
[23] = second compound 3.16 µM, first compound 0.0316 µM
[24] = second compound 3.16 µM, first compound 0.1 µM
[25] = second compound 10 µM, first compound 0.000316 µM
[26] = second compound 10 µM, first compound 0.001 µM
[27] = second compound 10 µM, first compound 0.00316 µM
[28] = second compound 10 µM, first compound 0.01 µM
[29] = second compound 10 µM, first compound 0.0316 µM
[30] = second compound 10 µM, first compound 0.1 µM
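Further: spheroids exposed to agents for seven days before readout.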

SMILES: CC(C)CC(NC(=O)C(Cc1ccccc1)NC(=O)c1cnccn1)B(O)O (stereo not given) + NC1CC1c1ccc(-c2cccc(O)c2)cc1
- pIC50 (second compound 0.1 µM): 9.08
- pIC50 (second compound 0.316 µM): 9.04
- pIC50 (second compound 1 µM): 9.10
- pIC50 (second compound 3.16 µM): 9.01
- pIC50 (second compound 10 µM): 9.23
- viability, T/C [1]: 122%
- viability, T/C [2]: 35.4%
- viability, T/C [3]: 12.9%
- viability, T/C [4]: 4.58%
- viability, T/C [5]: 1.38%
- viability, T/C [6]: 2.17%
- viability, T/C [7]: 110%
- viability, T/C [8]: 44.2%
- viability, T/C [9]: 11.4%
- viability, T/C [10]: 3.25%
- viability, T/C [11]: 1.54%
- viability, T/C [12]: 1.44%
- viability, T/C [13]: 109%
- viability, T/C [14]: 34%
- viability, T/C [15]: 11.6%
- viability, T/C [16]: 3.96%
- viability, T/C [17]: 0.99%
- viability, T/C [18]: 4.31%
- viability, T/C [19]: 103%
- viability, T/C [20]: 48.9%
- viability, T/C [21]: 16%
- viability, T/C [22]: 3.4%
- viability, T/C [23]: 1.41%
- viability, T/C [24]: 2.37%
- viability, T/C [25]: 74.4%
- viability, T/C [26]: 29.1%
- viability, T/C [27]: 9.61%
- viability, T/C [28]: 3.68%
- viability, T/C [29]: 1.33%
- viability, T/C [30]: 2.12%

SMILES: CC(C)CC(NC(=O)CNC(=O)c1cc(Cl)ccc1Cl)B1OC(=O)CC(CC(=O)O)(C(=O)O)O1 (stereo not given) + NC1CC1c1ccc(-c2cccc(O)c2)cc1
- pIC50 (second compound 0.1 µM): 7.68
- pIC50 (second compound 0.316 µM): 7.82
- pIC50 (second compound 1 µM): 7.78
- pIC50 (second compound 3.16 µM): 7.83
- pIC50 (second compound 10 µM): 8.03
- viability, T/C [1]: 88.6%
- viability, T/C [2]: 103%
- viability, T/C [3]: 109%
- viability, T/C [4]: 73%
- viability, T/C [5]: 38.5%
- viability, T/C [6]: 19.6%
- viability, T/C [7]: 97.4%
- viability, T/C [8]: 91.7%
- viability, T/C [9]: 117%
- viability, T/C [10]: 62.3%
- viability, T/C [11]: 38.2%
- viability, T/C [12]: 17.5%
- viability, T/C [13]: 77.9%
- viability, T/C [14]: 87%
- viability, T/C [15]: 123%
- viability, T/C [16]: 68.2%
- viability, T/C [17]: 33%
- viability, T/C [18]: 20.4%
- viability, T/C [19]: 92.8%
- viability, T/C [20]: 90.8%
- viability, T/C [21]: 116%
- viability, T/C [22]: 61.7%
- viability, T/C [23]: 38.7%
- viability, T/C [24]: 14.7%
- viability, T/C [25]: 80%
- viability, T/C [26]: 84.6%
- viability, T/C [27]: 113%
- viability, T/C [28]: 47.3%
- viability, T/C [29]: 23.9%
- viability, T/C [30]: 9.99%

SMILES: COc1cc(Nc2ncc3c(n2)-c2ccc(Cl)cc2C(c2c(F)cccc2OC)=NC3)ccc1C(=O)O + NC1CC1c1ccc(-c2cccc(O)c2)cc1
- pIC50 (second compound 0.1 µM): < 6.00
- pIC50 (second compound 0.316 µM): < 6.00
- pIC50 (second compound 1 µM): < 6.00
- pIC50 (second compound 3.16 µM): 6.09
- pIC50 (second compound 10 µM): < 6.00
- viability, T/C [3]: 66.8%
- viability, T/C [4]: 75.8%
- viability, T/C [5]: 73.6%
- viability, T/C [6]: 62.1%
- viability, T/C (second compound 0.1 µM, first compound 0.316 µM): 66.8%
- viability, T/C (second compound 0.1 µM, first compound 1 µM): 64.8%
- viability, T/C [9]: 63.6%
- viability, T/C [10]: 70.6%
- viability, T/C [11]: 65.8%
- viability, T/C [12]: 57.2%
- viability, T/C (second compound 0.316 µM, first compound 0.316 µM): 57.3%
- viability, T/C (second compound 0.316 µM, first compound 1 µM): 53.9%
- viability, T/C [15]: 63.5%
- viability, T/C [16]: 70.8%
- viability, T/C [17]: 61.8%
- viability, T/C [18]: 59.8%
- viability, T/C (second compound 1 µM, first compound 0.316 µM): 57.3%
- viability, T/C (second compound 1 µM, first compound 1 µM): 53.7%
- viability, T/C [21]: 62.1%
- viability, T/C [22]: 58.9%
- viability, T/C [23]: 58%
- viability, T/C [24]: 54.7%
- viability, T/C (second compound 3.16 µM, first compound 0.316 µM): 51.7%
- viability, T/C (second compound 3.16 µM, first compound 1 µM): 49.6%
- viability, T/C [27]: 60.2%
- viability, T/C [28]: 66.3%
- viability, T/C [29]: 65.1%
- viability, T/C [30]: 55.5%
- viability, T/C (second compound 10 µM, first compound 0.316 µM): 56.8%
- viability, T/C (second compound 10 µM, first compound 1 µM): 53.5%
